Measured values taken from the supplement of paper PMC13380429.
± gives the standard deviation of the averaged measurements.

Assays:
Conditions in all cases: 72 h
[1] = test system: U2OS; assay: relative viability EC50 (midpoint between 100% and the lowest measured viability); higher = less toxic
[2] = test system: Calu-3; assay: as above
[3] = test system: Vero E6; assay: as above
[4] = test system: Caco-2; assay: as above
[5] = test system: HepG2; assay: as above
[6] = test system: U2OS; assay: cell viability relative to DMSO; higher = less toxic
[7] = test system: Calu-3; assay: as above
[8] = test system: Vero E6; assay: as above
[9] = test system: Caco-2; assay: as above
[10] = test system: HepG2; assay: as above
[11] = test system: U2OS; assay: drug sensitivity score (DSS) for viability; higher = more toxic; extreme values may be limits of the assay
[12] = test system: Calu-3; assay: as above
[13] = test system: Vero E6; assay: as above
[14] = test system: Caco-2; assay: as above
[15] = test system: HepG2; assay: as above

SMILES	relative viability EC50 [1]	relative viability EC50 [2]	relative viability EC50 [3]	relative viability EC50 [4]	relative viability EC50 [5]	cell viability ([6]; 1 nM)	cell viability ([6]; 10 nM)	cell viability ([6]; 100 nM)	cell viability ([6]; 1000 nM)	cell viability ([6]; 10000 nM)	cell viability ([7]; 1 nM)	cell viability ([7]; 10 nM)	cell viability ([7]; 100 nM)	cell viability ([7]; 1000 nM)	cell viability ([7]; 10000 nM)	cell viability ([8]; 1 nM)	cell viability ([8]; 10 nM)	cell viability ([8]; 100 nM)	cell viability ([8]; 1000 nM)	cell viability ([8]; 10000 nM)	cell viability ([9]; 1 nM)	cell viability ([9]; 10 nM)	cell viability ([9]; 100 nM)	cell viability ([9]; 1000 nM)	cell viability ([9]; 10000 nM)	cell viability ([10]; 1 nM)	cell viability ([10]; 10 nM)	cell viability ([10]; 100 nM)	cell viability ([10]; 1000 nM)	cell viability ([10]; 10000 nM)	drug sensitivity score [11]	drug sensitivity score [12]	drug sensitivity score [13]	drug sensitivity score [14]	drug sensitivity score [15]
CC(=O)N[C@H]1[C@@H](OC(C)C)O[C@H](COC(C)=O)[C@@H](OC(C)=O)[C@@H]1OC(C)=O [C34]	> 10 µM	> 10 µM	> 10 µM	> 10 µM	> 10 µM	102%	106%	96.9%	103%	96.3%	112%	96.1%	103%	95.5%	101%	96.2%	96.2%	97.1%	96.6%	95.5%	106%	109%	91.8%	101%	98.5%	95.3%	102%	102%	102%	110%	0	0	0	0	0
CC(=O)Nc1ccc(C(=O)NC(C)(C)C)cc1 [CPI-1189]	> 10 µM	> 10 µM	> 10 µM	> 10 µM	> 10 µM	100%	93.3%	98.2%	97%	98.7%	108%	105%	108%	114%	96.6%	96%	99.6%	97.8%	97.2%	91.8%	99.9%	99.7%	104%	95.7%	99.9%	91.5%	95.3%	96.6%	97.4%	94.2%	0	0	0	0	0
CC(C)(CC(=O)N1CCCC1)NCC(=O)N1C[C@@H](F)C[C@H]1C#N [DBPR108]	> 10 µM	> 10 µM	> 10 µM	> 10 µM	> 10 µM	97.9%	98.1%	99.1%	100%	92.9%	107%	97.5%	100%	98.9%	95%	99.6%	99.9%	104%	92.2%	102%	91.1%	93.5%	86.4%	95.6%	95%	96.2%	102%	94.6%	104%	105%	0	0	0	0	0
O=C(c1ccc(Cl)cc1)N(Cc1ccccc1)C1CCCCC1 [FPS-ZM1]	> 10 µM	> 10 µM	> 10 µM	> 10 µM	> 10 µM	98%	98.6%	97.4%	100%	96.2%	105%	96.3%	102%	99.3%	89.7%	97.6%	97.7%	99.3%	101%	90.8%	101%	91.6%	93.3%	102%	89.4%	106%	106%	102%	92.9%	93.8%	0	0	0	0	0
Cc1ccc2c(c1)Cc1c(C(=O)NN3CCCCC3)nn(-c3ccc(Cl)cc3Cl)c1-2 [GP1a]	> 10 µM	> 10 µM	> 10 µM	> 10 µM	> 10 µM	99.4%	108%	97.7%	101%	89.7%	99.6%	101%	91.8%	101%	86.7%	99.9%	100%	103%	100%	98.6%	102%	102%	103%	99.5%	84.1%	100%	96.9%	98.4%	91.9%	91.3%	0	0.1	0	0.3	0
CCCCOc1nc(N)c2c(n1)N(Cc1cccc(CN3CCCC3)c1)CC(=O)N2 [GS-9620]	> 10 µM	> 10 µM	> 10 µM	> 10 µM	> 10 µM	100%	96.5%	96.8%	95.6%	101%	101%	95.1%	111%	96.1%	104%	108%	96.3%	101%	103%	98.8%	96.3%	104%	91.4%	98.5%	98.3%	105%	102%	95.9%	100%	99.1%	0	0	0	0	0
Fc1cc(F)c2c(c1)[C@H]1C=CC[C@H]1C(c1cccnc1)N2 (stereo not given in full) [Golgicide A]	3.46 µM	3.01 µM	3.2 µM	2.97 µM	3.48 µM	103%	101%	105%	105%	1.7%	103%	108%	108%	98.2%	19%	111%	108%	105%	100%	4.4%	108%	103%	101%	98.2%	31.5%	121%	108%	102%	105%	10.9%	5.1	4.7	5.3	4	4.5
Nc1nonc1/C(=N/O)Nc1ccc(F)c(Cl)c1 [IDO5L]	> 10 µM	> 10 µM	> 10 µM	> 10 µM	> 10 µM	93.1%	95.7%	102%	95.5%	102%	92.5%	96%	108%	89.6%	114%	106%	102%	96.7%	98.8%	114%	101%	95.2%	115%	87.7%	109%	92.8%	97.8%	104%	89.9%	91.2%	0	0	0	0	0
O=c1ccn([C@@H]2O[C@H](COP(=O)(O)OP(=O)(O)OP(=O)(O)O)[C@@H](O)[C@H]2O)c(=O)[nH]1 [INS316]	> 10 µM	> 10 µM	> 10 µM	> 10 µM	> 10 µM	99.4 ± 5.7%	95.9 ± 3.8%	103 ± 7.8%	96.3 ± 6.7%	105 ± 1.8%	94.5 ± 3.1%	95.8 ± 7.1%	92.5 ± 1.9%	100.8 ± 0.21%	101 ± 7.7%	98.6 ± 2.5%	93.3 ± 11%	98.2 ± 2.6%	98.5 ± 4.2%	99.1 ± 3.1%	102 ± 6%	107 ± 18%	109 ± 1.8%	113 ± 26%	93.5 ± 13%	100 ± 1.2%	107 ± 2%	109 ± 10%	105 ± 3%	103 ± 5.7%	0	0	0	0	0
O=C(Oc1ccc([N+](=O)[O-])cc1)N1CCC(C(O)(c2ccc3c(c2)OCO3)c2ccc3c(c2)OCO3)CC1 [JZL-184]	> 10 µM	> 10 µM	> 10 µM	> 10 µM	> 10 µM	94.9%	100%	98%	96.2%	97.9%	105%	115%	100%	91.2%	117%	106%	97.2%	91.9%	96.4%	91%	104%	98.5%	100%	91.5%	104%	109%	114%	90.5%	116%	97.9%	0	0	0	0	0
NC(=O)NCCC[C@H](N)C(=O)O [L-citrulline]	> 10 µM	> 10 µM	> 10 µM	> 10 µM	> 10 µM	98.7%	102%	95.5%	105%	95.6%	101%	92.2%	98.6%	96.9%	110%	98.6%	96%	97.2%	97.8%	102%	99%	104%	92.3%	101%	92.4%	100%	95.2%	92.7%	91.4%	94%	0	0	0	0	0
N=C(Nc1ccccc1)c1cccs1 [LTA]	> 10 µM	> 10 µM	> 10 µM	> 10 µM	> 10 µM	99.9%	104%	95.9%	104%	95.7%	97.6%	104%	97.4%	104%	91.6%	99.7%	101%	93.5%	99.1%	103%	89.4%	88.4%	98.1%	93.7%	82.8%	105%	105%	96.8%	99.1%	110%	0	0	0	0	0
CN1C(=O)C(F)=C[C@]2(C)[C@H]3CC[C@]4(C)[C@@H](C(=O)NCc5nc6cccnc6[nH]5)CC[C@H]4[C@@H]3CC[C@@H]12 [MK-0773]	> 10 µM	> 10 µM	> 10 µM	> 10 µM	> 10 µM	99%	99.4%	98.8%	95.4%	95.9%	103%	103%	101%	97.7%	100%	99.2%	102%	96.2%	104%	104%	102%	92.4%	100%	83.3%	87.7%	91.1%	108%	93%	91.4%	87.9%	0	0	0	1.8	0.9
CC(C)(C)NC(=O)[C@@H](c1cccnc1)N(C(=O)c1ccco1)c1ccc(C(C)(C)C)cc1 [ML188]	> 10 µM	> 10 µM	> 10 µM	> 10 µM	> 10 µM	93.9%	100%	96.6%	101%	98.8%	93.6%	93.4%	96.9%	102%	89.7%	93.1%	97.7%	103%	108%	97.6%	99.7%	95%	98.2%	101%	89.9%	96.3%	101%	92.1%	106%	95%	0	0	0	0	0
